Reference: patent US10138490B2, “Transformed plants tolerant to herbicides due to overexpression of prephenate dehydrogenase and p-hydroxyphenylpyruvate dioxygenase” (priority 2002, dated 2018)

What was measured:
Format in all cases: in vivo
[1] = tested on: PBD6-ARA9 tobacco line (overexpressing A. thaliana HPPD); test: Tolerance to HPPD inhibitors: sowing on increasing concentrations of DKN, parental line
Text: (§1) The tolerance of the transformed plants is studied by sowing on a soil treated with diketonitrile (DKN).
(§2) 13 ARA9-PDH lines and the PBD6-ARA9 line that was used as starting material for the transformation were sown on increasing concentrations of DKN:5, 10 and 32 ppm.

[2] = tested on: ARA9-PDH tobacco lines (overexpressing PDH and HPPD); test: Tolerance to HPPD inhibitors: sowing on increasing concentrations of DKN, doubly transformed lines
Text: as §1, §2

[3] = tested on: ARA9-PDH18 tobacco line; test: Tolerance to sulcotrione and to mesotrione, ARA9-PDH18 line
Protocol: as §2
The same experiment was carried out with the HPPD inhibitors sulcotrione and mesotrione.

[4] = tested on: wild-type tobacco line of the Petit Havana type; test: Tolerance to sulcotrione and to mesotrione, wild-type line

SMILES | response of line sown on DKN ([1]; 5 ppm DKN) | response of line sown on DKN ([1]; 10 ppm DKN) | response of line sown on DKN ([1]; 32 ppm DKN) | response of lines sown on DKN ([2]; 5 ppm DKN, all 13 ARA9-PDH lines) | response of line sown on DKN ([2]; 10 ppm DKN, ARA9-PDH4 line) | response of lines sown on DKN ([2]; 10 ppm DKN, all ARA9-PDH lines except ARA9-PDH4) | response of lines sown on DKN ([2]; 32 ppm DKN, ARA9-PDH lines that were resistant to 10 ppm) | concentration of HPPD inhibitor the line is tolerant to [3] [µM] | concentration of HPPD inhibitor the line is sensitive to [4] [µM]
CS(=O)(=O)c1cc(C(F)(F)F)ccc1C(=O)C(C#N)C(=O)C1CC1 (centres unmarked) [DKN] | resistant | completely inhibited | completely inhibited | resistant | inhibited | resist well | resistant and grow normally |  | 
CS(=O)(=O)c1ccc(C(=O)C2C(=O)CCCC2=O)c([N+](=O)[O-])c1 [mesotrione] |  |  |  |  |  |  |  | 3 | 0.375
CS(=O)(=O)c1ccc(C(=O)C2C(=O)CCCC2=O)c(Cl)c1 [sulcotrione] |  |  |  |  |  |  |  | 6 | 0.375
